Molecules are shown by their SMILES. Read-outs that look alike come from different tables or passages of the source.

Broadly, the EC50 is the concentration at which the effect is half-maximal. Higher therefore signals a less potent agent.

For assay [1], the system named is HeLa nuclear extract HDAC1/2. The experiment in a line: Fluor de Lys HDAC inhibition, HeLa nuclear extract. Format: biochemical, human. The source says: (§1) Fluor de Lys™ is a fluorescence based HDAC activity assay comprising a combination of fluorogenic Histone deAcetylase Lysyl substrate and a developer. The kit is a highly sensitive and convenient alternative to radiolabeled, acetylated histones or peptide/HPLC methods for the assay of histone deacetylases. This assay is based on the ability of HeLa nuclear extract, which is enriched in HDAC activity, to mediate the deacetylation of the acetylated lysine side chain of the Fluor de Lys substrate. The assay procedure requires two steps. First, incubation of the HeLa nuclear extract with the Fluor de Lys substrate results in substrate deacetylation and thus sensitizes it to the second step. In the second step, treatment of the deacetylated substrate with the Fluor de Lys developer produces a fluorophore. The substrate-developer reaction, under normal circumstances goes to completion in less than 1 min at 25° C. The kit used was the Fluorimetric Assay/Drug Discovery Kit—AK-500 Manual Fluorescent Assay System available from BIOMOL® International, Plymouth Meeting, Pa.
Each IC50 value was obtained by averaging three independent experiments.

For a further assay, the target named is HDAC8 (Homo sapiens (Human), UniProt Q9BY41). In words: Fluor de Lys HDAC8 inhibition. Format: biochemical. The following applies: for IC50: read-out: HDAC 8; for HDAC8: Nuclear Extract Isoform Selectivity: ratio of IC50 HDAC8 to nuclear extract.
Sequence of HDAC8 (Q9BY41 whole entry, canonical isoform): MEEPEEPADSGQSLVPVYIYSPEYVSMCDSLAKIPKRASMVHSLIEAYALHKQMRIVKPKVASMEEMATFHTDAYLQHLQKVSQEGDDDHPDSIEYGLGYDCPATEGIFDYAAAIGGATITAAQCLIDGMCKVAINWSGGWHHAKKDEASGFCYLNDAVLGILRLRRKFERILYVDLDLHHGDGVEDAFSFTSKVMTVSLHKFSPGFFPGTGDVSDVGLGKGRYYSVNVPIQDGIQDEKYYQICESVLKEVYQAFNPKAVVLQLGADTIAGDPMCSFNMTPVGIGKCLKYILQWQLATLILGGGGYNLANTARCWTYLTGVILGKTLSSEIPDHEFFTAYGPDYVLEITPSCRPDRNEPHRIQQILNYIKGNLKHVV
For the next assay, the target named is HDAC6 (Homo sapiens (Human), UniProt Q9UBN7). In words: Fluor de Lys HDAC6 inhibition. Format: biochemical. The following applies: for IC50: Table 5, read-out: HDAC 6; for HDAC6: Nuclear Extract Isoform Selectivity: ratio of IC50 HDAC6 to nuclear extract.
Sequence of HDAC6 (Q9UBN7 whole entry, canonical isoform): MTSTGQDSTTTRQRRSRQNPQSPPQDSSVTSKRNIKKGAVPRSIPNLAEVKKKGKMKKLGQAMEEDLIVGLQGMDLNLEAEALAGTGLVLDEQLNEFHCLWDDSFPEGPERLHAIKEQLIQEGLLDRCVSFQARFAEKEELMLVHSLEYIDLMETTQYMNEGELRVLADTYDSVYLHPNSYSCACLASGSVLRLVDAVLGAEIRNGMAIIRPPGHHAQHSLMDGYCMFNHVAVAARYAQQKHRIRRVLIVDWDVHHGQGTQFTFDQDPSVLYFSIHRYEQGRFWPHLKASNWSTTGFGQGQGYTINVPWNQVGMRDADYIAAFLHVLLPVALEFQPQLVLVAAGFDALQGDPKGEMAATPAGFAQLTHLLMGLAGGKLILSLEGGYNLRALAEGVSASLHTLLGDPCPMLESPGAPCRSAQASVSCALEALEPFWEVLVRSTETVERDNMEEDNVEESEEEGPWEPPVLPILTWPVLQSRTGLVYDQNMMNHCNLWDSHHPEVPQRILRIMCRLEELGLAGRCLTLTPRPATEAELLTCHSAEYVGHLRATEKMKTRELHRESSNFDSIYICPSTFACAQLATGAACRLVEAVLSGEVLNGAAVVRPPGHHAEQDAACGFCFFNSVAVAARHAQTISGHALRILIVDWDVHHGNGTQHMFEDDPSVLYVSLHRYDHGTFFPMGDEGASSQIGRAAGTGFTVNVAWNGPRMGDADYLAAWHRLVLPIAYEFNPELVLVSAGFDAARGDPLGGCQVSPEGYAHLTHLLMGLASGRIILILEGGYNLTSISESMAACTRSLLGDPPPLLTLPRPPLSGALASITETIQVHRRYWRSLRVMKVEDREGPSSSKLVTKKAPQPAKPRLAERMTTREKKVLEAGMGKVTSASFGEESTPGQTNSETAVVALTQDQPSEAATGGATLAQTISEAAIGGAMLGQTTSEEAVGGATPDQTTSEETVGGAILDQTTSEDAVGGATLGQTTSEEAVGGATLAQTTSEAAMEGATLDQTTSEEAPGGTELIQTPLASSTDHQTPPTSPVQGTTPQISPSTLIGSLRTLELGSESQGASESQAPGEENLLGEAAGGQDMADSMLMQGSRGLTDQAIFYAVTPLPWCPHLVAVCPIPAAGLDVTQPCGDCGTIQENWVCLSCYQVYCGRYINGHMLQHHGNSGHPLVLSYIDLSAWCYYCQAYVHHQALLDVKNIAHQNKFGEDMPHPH
Text: as §1
The ketolides 56 were also evaluated for their HDAC inhibitory activity against HDACs 1 and 2 from HeLa cell nuclear extract, HDAC6, and HDAC8 using the Fluor de Lys assay.

The subject of the next assay is prostate (DU-145). In words: Cell viability, MTS colorimetric assay. Format: cell-based. As to the method:
(§2) The effect of compounds 56a-e on cancer cell lines: prostate (DU-145), lung (A549), and breast cancer (MCF-7) and a non-transformed cell, human lung fibroblast cell (Hs1.Lu) were also evaluated.
(In general: Tetrazolium dyes change colour on reduction, which living cells bring about.)

In a further assay the test system is breast cancer (MCF-7). The experiment in a line: Cell viability, MTS colorimetric assay. Format: cell-based. As for the experimental part:
as §2

The next assay deals with lung (A549). The experiment in a line: Cell viability, MTS colorimetric assay. Format: cell-based. As to the method:
as §2

Assay [2] has as its system Plasmodium falciparum (D6 clone), chloroquine-sensitive. In words: Plasmodium growth inhibition, parasite lactate dehydrogenase assay (Malstat). Format: cell-based. The following applies: for Plasmodium falciparum (D6 clone) IC50: chloroquine-sensitive; for S.I. D6: selective toxicity index, Vero versus D6. As to the method:
(§3) The compounds described herein were also evaluated for parasitic activity against Plasmodium falciparum and Leismania donovani. P. falciparum and L. donovani are the causative parasites of malaria and leishmaniasis, two human diseases which constitute a serious threat to public health in tropical and sub-tropical countries. Antimalarial activity was evaluated in vitro using chloroquine-sensitive (D6, Sierra Leone) and chloroquine-resistant (W2, Indochina) strains of P. falciparum. Antileishmanial activity was evaluated in vitro against the promastigote stage of L. donovani.
(§4) Plasmodium growth inhibition was determined by a parasite lactate dehydrogenase assay using Malstat reagent. Inhibition of viability of the promastigote stage of L. donovani was determined using standard Alamar blue assay, modified to a fluorometric assay.
(§5) Macrocyclic histone deacetylase inhibitors were evaluated for parasitic activity against Plasmodium falciparum and Leismania donovani. P. falciparum and L. donovani are the causative parasites of malaria and leishmaniasis, two human diseases which constitute a serious threat to public health in tropical and sub-tropical countries. Antimalarial activity was evaluated in vitro using chloroquine-sensitive (D6, Sierra Leone) and chloroquine-resistant (W2, Indochina) strains of P. falciparum. Antileishmanial activity was evaluated in vitro against the promastigote stage of L. donovani.
as §4

For assay [3], the system named is Plasmodium falciparum (W2 clone), chloroquine-resistant. The description is as above. Format: cell-based. Particulars: for Plasmodium falciparum (W2 clone) IC50: chloroquine-resistant. As for the experimental part: as §3, §4, §5, §4
For the next assay, the system named is SKMES 1. In words: Cell viability, trypan blue exclusion. Format: cell-based. The following applies: Homo sapiens, SK-MES-1. The source says:
(§6) Most importantly, the compounds we less toxic to untransformed cell-lines (lung fibroblast and HMEC).
(§7) Most importantly, these compounds are less toxic to untransformed cell-lines (lung fibroblast and HMEC) that we have studied to date.

For another assay, the system named is HMEC. The experiment in a line: Cell viability, trypan blue exclusion. Format: cell-based. Particulars: Homo sapiens; untransformed cells.
Text: as §6, §7

A further assay has as its system DU 145 cells. The experiment in a line: Cell viability, trypan blue exclusion. The assay is classed as cell-based. The following applies: Homo sapiens.
Text: as §6, §7

For another assay, the system named is lung fibroblasts. In words: Cell viability, trypan blue exclusion. The assay is classed as cell-based. Particulars: Fibroblast; untransformed cells.
Text: as §6, §7

A further assay concerns NCI-H69. The experiment in a line: Cell viability, trypan blue exclusion. The following applies: Homo sapiens. The assay is classed as cell-based.
Text: as §6, §7

[4] abbreviates: HDACs 1 and 2 from HeLa cell nuclear extract, Table 5, read-out: Nuclear Extract.
Where [5] appears, read: HeLa nuclear extract, average of three independent experiments, Table 4, read-out: HDAC ½.
Setting [6] is: average of three independent experiments, Table 4.

Consider `CCC1OC(=O)C(C)C(=O)C(C)C(OC2OC(C)CC(N(C)Cc3ccc(-c4cn(CCCCCC(=O)NO)nn4)cc3)C2O)C(C)(OC)CC(C)C2=NCCN3C(=O)OC1(C)C3C2C` (stereo not shown) [Compound 56a, Tricyclic Ketolide-N-benzyltriazolylhexahydroxamic acid], for which the IC50 in [1] (setting [4]) stood at 7.77 nM; on HDAC8 (Table 5), 796 nM; at HDAC6, 1180 nM. Also, the “HDAC8: Nuclear Extract Isoform Selectivity” value on HDAC8 is listed as 102.5. Besides, the “HDAC6: Nuclear Extract Isoform Selectivity” value at HDAC6 is reported as 151.9. Moreover, the EC50 in the assay with prostate (DU-145) was 1640 nM; with breast cancer (MCF-7), 1260 nM; with lung (A549), 1170 nM. In addition, the “Plasmodium falciparum (D6 clone) IC50” value in assay [2] amounted to 0.96 µg/mL. In addition, the “S.I. D6” value in assay [2] was >5.0 (no value). Further, in assay [3], the “Plasmodium falciparum (W2 clone) IC50” value stood at 1.80 µg/mL.

On to `CCC1OC(=O)C(C)C(=O)C(C)C(OC2OC(C)CC(N(C)Cc3ccc(-c4cn(CCCCCCC(=O)NO)nn4)cc3)C2O)C(C)(OC)CC(C)C2=NCCN3C(=O)OC1(C)C3C2C` (stereo not shown) [Compound 56b, Tricyclic Ketolide-N-benzyltriazolylheptahydroxamic acid], for which the “Nuclear Extract (nM)” value in assay [1] (HDACs 1 and 2 from HeLa cell nuclear extract, Table 5) is “single digit nanomolar”. The IC50 was 1.03 nM in assay [1] (setting [4]), 545 nM at HDAC8 (Table 5) and 729 nM on HDAC6. At HDAC8, the “HDAC8: Nuclear Extract Isoform Selectivity” value was 528.7. Moreover, the “HDAC6: Nuclear Extract Isoform Selectivity” value on HDAC6 was 707.5. The half-maximal effective concentration (EC50) with prostate (DU-145) amounted to 820 nM; in the assay with breast cancer (MCF-7), 750 nM; with lung (A549) it was 660 nM. Besides, the “Plasmodium falciparum (D6 clone) IC50” value in assay [2] was determined as 0.14 µg/mL. Moreover, the “S.I. D6” value in assay [2] is on record as > 34. The “Plasmodium falciparum (W2 clone) IC50” value in assay [3] turned out to be 0.12 µg/mL. Moreover, in assay [3] (selective toxicity index, Vero versus W2, value in brackets), the “S.I. (W2)” value was > 39.7.

For the molecule `CC[C@H]1OC(=O)[C@H](C)[C@@H](O[C@H]2C[C@@](C)(OC)[C@@H](O)[C@H](C)O2)[C@H](C)[C@@H](O[C@@H]2O[C@H](C)C[C@H](N(C)Cc3ccc(-c4cn(CCCCCCCC(=O)NO)nn4)cc3)[C@H]2O)[C@](C)(OC)C[C@@H](C)C(=O)[C@H](C)[C@@H](O)[C@]1(C)O` [Compound 27, Clarithromycin-N-Phenyltriazolyloctahydroxamic acid], the IC50 worked out at 55.6 nM in [1] (setting [5]) and 5880 nM at HDAC8 (setting [6]). In addition, the EC50 with SKMES 1 was 4890 nM; in the assay with HMEC, > 10000 nM; in the assay with DU 145 cells, 6970 nM; with lung fibroblasts, > 10000 nM; in the assay with NCI-H69, 5670 nM.

Regarding `CC[C@H]1OC(=O)[C@H](C)[C@@H](O)[C@H](C)[C@@H](O[C@@H]2O[C@H](C)C[C@H](N(C)Cc3ccc(-c4cn(CCCCCCCC(=O)NO)nn4)cc3)[C@H]2O)[C@](C)(OC)C[C@@H](C)C(=O)[C@H](C)[C@@H](O)[C@]1(C)O` [Compound 28, Descladinose-Clarithromycin-N-Phenyltriazolyloctahydroxamic acid], the IC50 was found to be 123 nM in assay [1] (setting [5]) and 4420 nM at HDAC8 (setting [6]). For the same molecule, the half-maximal effective concentration (EC50) in the assay on SKMES 1 was 4450 nM; with HMEC it was > 10000 nM; with DU 145 cells, 5780 nM; in the assay on lung fibroblasts it was > 10000 nM; in the assay with NCI-H69, 5090 nM.

`CC[C@H]1OC(=O)[C@H](C)[C@@H](O)[C@H](C)[C@@H](O[C@@H]2O[C@H](C)C[C@H](N(C)Cc3ccc(-c4cn(CCCCCCC(=O)NO)nn4)cc3)[C@H]2O)[C@](C)(OC)C[C@@H](C)C(=O)[C@H](C)[C@@H](O)[C@]1(C)O` [Compound 26, Descladinose-Clarithromycin-N-phenyltriazolylheptahydroxamic acid]: the IC50 was 1.87 nM in assay [1] (setting [5]) and 1390 nM on HDAC8 (setting [6]). The EC50 in the assay on SKMES 1 was 1280 nM; in the assay with HMEC, > 10000 nM; with DU 145 cells it was 1050 nM; in the assay on lung fibroblasts it was > 10000 nM; with NCI-H69, 1490 nM.

As to `CC[C@H]1OC(=O)[C@H](C)[C@@H](O[C@H]2C[C@@](C)(OC)[C@@H](O)[C@H](C)O2)[C@H](C)[C@@H](O[C@@H]2O[C@H](C)C[C@H](N(C)Cc3ccc(-c4cn(CCCCCCC(=O)NO)nn4)cc3)[C@H]2O)[C@](C)(OC)C[C@@H](C)C(=O)[C@H](C)[C@@H](O)[C@]1(C)O` [Compound 25, Clarithromycin-N-phenyltriazolylheptahydroxamic acid], the IC50 in assay [1] (setting [5]) came out at 4.09 nM; on HDAC8 (setting [6]), 1890 nM. For the same molecule, the EC50 is 1330 nM with SKMES 1; > 10000 nM in the assay on HMEC; 1120 nM in the assay on DU 145 cells; > 10000 nM with lung fibroblasts; 1450 nM in the assay with NCI-H69.

For the molecule `CC[C@H]1OC(=O)[C@H](C)[C@@H](O[C@H]2C[C@@](C)(OC)[C@@H](O)[C@H](C)O2)[C@H](C)[C@@H](O[C@@H]2O[C@H](C)C[C@H](N(C)Cc3ccc(-c4cn(CCCCCCCCC(=O)NO)nn4)cc3)[C@H]2O)[C@](C)(OC)C[C@@H](C)C(=O)[C@H](C)[C@@H](O)[C@]1(C)O` [Compound 29, Clarithromycin-N-Phenyltriazolylnonahydroxamic acid], the IC50 in assay [1] (setting [5]) worked out at 170 nM; at HDAC8 (setting [6]), 10600 nM. Also, the EC50 with SKMES 1 is 7120 nM; with HMEC, > 10000 nM; with DU 145 cells, 8140 nM; in the assay on lung fibroblasts it was > 10000 nM; in the assay on NCI-H69, 7290 nM.

On to `CC[C@H]1OC(=O)[C@H](C)[C@@H](O)[C@H](C)[C@@H](O[C@@H]2O[C@H](C)C[C@H](N(C)Cc3ccc(-c4cn(CCCCCC(=O)NO)nn4)cc3)[C@H]2O)[C@](C)(OC)C[C@@H](C)C(=O)[C@H](C)[C@@H](O)[C@]1(C)O` [Compound 24, Descladinose-Clarithromycin-N-phenyltriazolylhexahydroxamic acid], for which the IC50 was found to be 44.3 nM in [1] (setting [5]) and 4750 nM on HDAC8 (setting [6]). The EC50 with SKMES 1 was 1950 nM; with HMEC it was > 10000 nM; in the assay on DU 145 cells it was 3290 nM; with lung fibroblasts it was > 10000 nM; in the assay on NCI-H69 it was 1920 nM.

As to `CC[C@H]1OC(=O)[C@H](C)[C@@H](O[C@H]2C[C@@](C)(OC)[C@@H](O)[C@H](C)O2)[C@H](C)[C@@H](O[C@@H]2O[C@H](C)C[C@H](N(C)Cc3ccc(-c4cn(CCCCCC(=O)NO)nn4)cc3)[C@H]2O)[C@](C)(OC)C[C@@H](C)C(=O)[C@H](C)[C@@H](O)[C@]1(C)O` [Compound 23, Clarithromycin-N-phenyltriazolylhexahydroxamic acid], the IC50 was found to be 37 nM in assay [1] (setting [5]) and 3990 nM on HDAC8 (setting [6]). Moreover, the EC50 in the assay with SKMES 1 was 2150 nM; in the assay on HMEC, > 10000 nM; in the assay on DU 145 cells, 2980 nM; in the assay on lung fibroblasts it was > 10000 nM; in the assay with NCI-H69, 2670 nM.

These data come from patent US8871728B2, “Non-peptide macrocyclic histone deacetylese (HDAC) inhibitors and methods of making and using thereof” (Georgia Tech Research Corporation, priority 2007, dated 2014).
